According to patent US9175003B2, “Substituted azoanthracene derivatives and intermediates for preparation thereof” (TransTech Pharma, LLC, priority 2009, dated 2015):

Molecular target: human GLP-1 receptor (Homo sapiens (Human), UniProt P43220)
Details: read-out: Mean EC50; cAMP, HTRF detection, 30 min at 37° C., HEK-293 cells expressing cloned human GLP-1 receptor

Chain of human GLP-1 receptor (P43220 24-463): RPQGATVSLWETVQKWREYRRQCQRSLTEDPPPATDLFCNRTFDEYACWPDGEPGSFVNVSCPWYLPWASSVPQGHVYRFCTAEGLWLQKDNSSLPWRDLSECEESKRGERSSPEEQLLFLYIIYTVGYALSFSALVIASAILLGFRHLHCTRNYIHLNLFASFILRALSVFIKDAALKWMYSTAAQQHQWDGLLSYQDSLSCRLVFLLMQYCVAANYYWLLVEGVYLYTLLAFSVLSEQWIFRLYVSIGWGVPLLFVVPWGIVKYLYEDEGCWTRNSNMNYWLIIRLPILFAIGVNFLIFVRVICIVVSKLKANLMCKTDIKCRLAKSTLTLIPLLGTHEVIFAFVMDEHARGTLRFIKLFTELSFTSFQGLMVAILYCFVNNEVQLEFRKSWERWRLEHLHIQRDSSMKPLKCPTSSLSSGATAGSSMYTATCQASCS

| EC50 [nM] | SMILES |
| --- | --- |
| 348 | Cc1nccc(-c2ccc(C[C@H](NC(=O)[C@@H]3Cc4cc5c(cc4CN3C(=O)Nc3cnccn3)O[C@@H](c3ccc(OCc4ccc(Cl)c(Cl)c4)cc3)CO5)C(=O)O)cc2)c1C [Example 257, (S)-2-{[(3S,8S)-3-[4-(3,4-Dichloro-benzyloxy)-phenyl]-7-(pyrazin-2-ylcarbamoyl)-2,3,6,7,8,9-hexahydro-[1,4]dioxino[2,3-g]isoquinoline-8-carbonyl]-amino}-3-[4-(2,3-dimethyl-pyridin-4-yl)-phenyl]-propionic acid] |
| 251 | Cc1nccc(-c2ccc(C[C@H](NC(=O)[C@@H]3Cc4cc5c(cc4CN3C(=O)Nc3ccccn3)O[C@@H](c3ccc(OCc4ccc(Cl)c(Cl)c4)cc3)CO5)C(=O)O)cc2)c1C [Example 258, (S)-2-{[(3S,8S)-3-[4-(3,4-dichloro-benzyloxy)-phenyl]-7-(pyridin-2-ylcarbamoyl)-2,3,6,7,8,9-hexahydro-[1,4]dioxino[2,3-g]isoquinoline-8-carbonyl]-amino}-3-[4-(2,3-dimethyl-pyridin-4-yl)-phenyl]-propionic acid] |
| 187 | Cc1ncoc1C(=O)N1Cc2cc3c(cc2C[C@H]1C(=O)N[C@@H](Cc1ccc(Oc2ccnc(C)c2C)cc1)C(=O)O)OC[C@H](c1ccc(OCc2ccc(Cl)c(Cl)c2)cc1)O3 [Example 263, (S)-2-{[(3S,8S)-3-[4-(3,4-Dichloro-benzyloxy)-phenyl]-7-(4-methyl-oxazole-5-carbonyl)-2,3,6,7,8,9-hexahydro-[1,4]dioxino[2,3-g]isoquinoline-8-carbonyl]-amino}-3-[4-(2,3-dimethyl-pyridin-4-yloxy)-phenyl]-propionic acid] |
| 95 | Cc1nc(C)c(C(=O)N2Cc3cc4c(cc3C[C@H]2C(=O)N[C@@H](Cc2ccc(Oc3ccnc(C)c3C)cc2)C(=O)O)OC[C@H](c2ccc(OCc3ccc(Cl)c(Cl)c3)cc2)O4)o1 [Example 265, (S)-2-{[(3S,8S)-3-[4-(3,4-Dichloro-benzyloxy)-phenyl]-7-(2,4-dimethyl-oxazole-5-carbonyl)-2,3,6,7,8,9-hexahydro-[1,4]dioxino[2,3-g]isoquinoline-8-carbonyl]-amino}-3-[4-(2,3-dimethyl-pyridin-4-yloxy)-phenyl]-propionic acid] |
| 132 | Cc1cc(C(=O)N2Cc3cc4c(cc3C[C@H]2C(=O)N[C@@H](Cc2ccc(Oc3ccnc(C)c3C)cc2)C(=O)O)OC[C@H](c2ccc(OCc3ccc(Cl)c(Cl)c3)cc2)O4)n(C)n1 [Example 266, (S)-2-{[(3S,8S)-3-[4-(3,4-Dichloro-benzyloxy)-phenyl]-7-(2,5-dimethyl-2H-pyrazole-3-carbonyl)-2,3,6,7,8,9-hexahydro-[1,4]dioxino[2,3-g]isoquinoline-8-carbonyl]-amino}-3-[4-(2,3-dimethyl-pyridin-4-yloxy)-phenyl]-propionic acid] |
| 142 | Cc1cc(C(=O)N2Cc3cc4c(cc3C[C@H]2C(=O)N[C@@H](Cc2ccc(-c3ccnc(C)c3C)cc2)C(=O)O)OC[C@H](c2ccc(OCc3ccc(Cl)c(Cl)c3)cc2)O4)n(C)n1 [Example 270, (S)-2-{[(3S,8S)-3-[4-(3,4-Dichloro-benzyloxy)-phenyl]-7-(2,5-dimethyl-2H-pyrazole-3-carbonyl)-2,3,6,7,8,9-hexahydro-[1,4]dioxino[2,3-g]isoquinoline-8-carbonyl]-amino}-3-[4-(2,3-dimethyl-pyridin-4-yl)-phenyl]-propionoc acid] |
| 102 | Cc1cc(C(=O)N2Cc3cc4c(cc3C[C@H]2C(=O)N[C@@H](Cc2ccc(-c3ccnc(C)c3C)cc2)C(=O)O)OC[C@H](c2ccc(OCc3ccc(Cl)c(Cl)c3)cc2)O4)no1 [Example 271, (S)-2-{[(3S,8S)-3-[4-(3,4-Dichloro-benzyloxy)-phenyl]-7-(5-methyl-isoxazole-3-carbonyl)-2,3,6,7,8,9-hexahydro-[1,4]dioxino[2,3-g]isoquinoline-8-carbonyl]-amino}-3-[4-(2,3-dimethyl-pyridin-4-yl)-phenyl]-propionic acid] |
| 2 | Cc1nccc(-c2ccc(C[C@H](NC(=O)[C@@H]3Cc4cc5c(cc4CN3C(=O)C3CCN(C(=O)OC(C)(C)C)CC3)O[C@@H](c3ccc(OCc4ccc(Cl)c(Cl)c4)cc3)CO5)C(=O)O)cc2)c1C [Example 274, 4-{(3S,8S)-8-{(S)-1-Carboxy-2-[4-(2,3-dimethyl-pyridin-4-yl)-phenyl]-ethylcarbamoyl}-3-[4-(3,4-dichloro-benzyloxy)-phenyl]-2,3,8,9-tetrahydro-6H-[1,4]dioxino[2,3-g]isoquinoline-7-carbonyl}-piperidine-1-carboxyl is acid tert-butyl ester] |
| 143 | Cc1nccc(-c2ccc(C[C@H](NC(=O)[C@@H]3Cc4cc5c(cc4CN3C(=O)c3cccc(O)c3)O[C@@H](c3ccc(OCc4ccc(Cl)c(Cl)c4)cc3)CO5)C(=O)O)cc2)c1C [Example 277, (S)-2-{[(3S,8S)-3-[4-(3,4-Dichloro-benzyloxy)-phenyl]-7-(3-hydroxy-benzoyl)-2,3,6,7,8,9-hexahydro-[1,4]dioxino[2,3-g]isoquinoline-8-carbonyl]-amino}-3-[4-(2,3-dimethyl-pyridin-4-yl)-phenyl]-propionic acid] |
| 45 | Cc1nccc(-c2ccc(C[C@H](NC(=O)[C@@H]3Cc4cc5c(cc4CN3C(=O)c3cc(F)cc(F)c3)O[C@@H](c3ccc(OCc4ccc(Cl)c(Cl)c4)cc3)CO5)C(=O)O)cc2)c1C [Example 278, (S)-2-{[(3S,8S)-3-[4-(3,4-Dichloro-benzyloxy)-phenyl]-7-(3,5-difluoro-benzoyl)-2,3,6,7,8,9-hexahydro-[1,4]dioxino[2,3-g]isoquinoline-8-carbonyl]-amino}-3-[4-(2,3-dimethyl-pyridin-4-yl)-phenyl]-propionic acid] |
| 15 | Cc1nccc(-c2ccc(C[C@H](NC(=O)[C@@H]3Cc4cc5c(cc4CN3C(=O)[C@H]3CCCN3C(=O)OC(C)(C)C)O[C@@H](c3ccc(OCc4ccc(Cl)c(Cl)c4)cc3)CO5)C(=O)O)cc2)c1C [Example 279, (R)-2-{(3S,8S)-8-{(S)-1-Carboxy-2-[4-(2,3-dimethyl-pyridin-4-yl)-phenyl]-ethylcarbamoyl}-3-[4-(3,4-dichloro-benzyloxy)-phenyl]-2,3,8,9-tetrahydro-6H-[1,4]dioxino[2,3-g]isoquinoline-7-carbonyl}-pyrrolidine-1-carboxylic acid tert-butyl ester] |
| 165 | Cc1nccc(-c2ccc(C[C@H](NC(=O)[C@@H]3Cc4cc5c(cc4CN3C(=O)[C@H]3CCN(C(=O)OC(C)(C)C)C3)O[C@@H](c3ccc(OCc4ccc(Cl)c(Cl)c4)cc3)CO5)C(=O)O)cc2)c1C [Example 280, (S)-3-{(3S,8S)-8-{(S)-1-Carboxy-2-[4-(2,3-dimethyl-pyridin-4-yl)-phenyl]-ethylcarbamoyl}-3-[4-(3,4-dichloro-benzyloxy)-phenyl]-2,3,8,9-tetrahydro-6H-[1,4]dioxino[2,3-g]isoquinoline-7-carbonyl}-pyrrolidine-1-carboxylic acid tert-butyl ester] |
| 5 | Cc1nccc(-c2ccc(C[C@H](NC(=O)[C@@H]3Cc4cc5c(cc4CN3C(=O)[C@@H]3CCN(C(=O)OC(C)(C)C)C3)O[C@@H](c3ccc(OCc4ccc(Cl)c(Cl)c4)cc3)CO5)C(=O)O)cc2)c1C [Example 281, (R)-3-{(3S,8S)-8-{(S)-1-Carboxy-2-[4-(2,3-dimethyl-pyridin-4-yl)-phenyl]-ethylcarbamoyl}-3-[4-(3,4-dichloro-benzyloxy)-phenyl]-2,3,8,9-tetrahydro-6H-[1,4]dioxino[2,3-g]isoquinoline-7-carbonyl}-pyrrolidine-1-carboxylic acid tert-butyl ester] |
| 198 | Cc1nccc(-c2ccc(C[C@H](NC(=O)[C@@H]3Cc4cc5c(cc4CN3C(=O)C3Cc4ccccc4C3)O[C@@H](c3ccc(OCc4ccc(Cl)c(Cl)c4)cc3)CO5)C(=O)O)cc2)c1C [Example 282, (S)-2-{[(3S,8S)-3-[4-(3,4-Dichloro-benzyloxy)-phenyl]-7-(indane-2-carbonyl)-2,3,6,7,8,9-hexahydro-[1,4]dioxino[2,3-g]isoquinoline-8-carbonyl]-amino}-3-[4-(2,3-dimethyl-pyridin-4-yl)-phenyl]-propionic acid] |
| 261 | Cc1nccc(-c2ccc(C[C@H](NC(=O)[C@@H]3Cc4cc5c(cc4CN3C(=O)OC(C)C)O[C@@H](c3ccc(OCc4ccc(Cl)c(Cl)c4)cc3)CO5)C(=O)O)cc2)c1C [Example 293, (3S,8S)-8-{(S)-1-Carboxy-2-[4-(2,3-dimethyl-pyridin-4-yl)-phenyl]-ethylcarbamoyl}-3-[4-(3,4-dichloro-benzyloxy)-phenyl]-2,3,8,9-tetrahydro-6H-[1,4]dioxino[2,3-g]isoquinoline-7-carboxylic acid isopropyl ester] |
| 137 | Cc1nccc(-c2ccc(C[C@H](NC(=O)[C@@H]3Cc4cc5c(cc4CN3C(=O)OCC(C)C)O[C@@H](c3ccc(OCc4ccc(Cl)c(Cl)c4)cc3)CO5)C(=O)O)cc2)c1C [Example 295, (3S,8S)-8-{(S)-1-Carboxy-2-[4-(2,3-dimethyl-pyridin-4-yl)-phenyl]-ethylcarbamoyl}-3-[4-(3,4-dichloro-benzyloxy)-phenyl]-2,3,8,9-tetrahydro-6H-[1,4]dioxino[2,3-g]isoquinoline-7-carboxylic acid isobutyl ester] |
| 263 | CCCCOC(=O)N1Cc2cc3c(cc2C[C@H]1C(=O)N[C@@H](Cc1ccc(Oc2ccnc(C)c2C)cc1)C(=O)O)OC[C@H](c1ccc(OCc2ccc(Cl)c(Cl)c2)cc1)O3 [Example 299, (3S,8S)-8-{(S)-1-Carboxy-2-[4-(2,3-dimethyl-pyridin-4-yloxy)-phenyl]-ethylcarbamoyl}-3-[4-(3,4-dichloro-benzyloxy)-phenyl]-2,3,8,9-tetrahydro-6H-[1,4]dioxino[2,3-g]isoquinoline-7-carboxylic acid butyl ester] |
| 182 | Cc1nccc(Oc2ccc(C[C@H](NC(=O)[C@@H]3Cc4cc5c(cc4CN3C(=O)OCc3ccccc3)O[C@@H](c3ccc(OCc4ccc(Cl)c(Cl)c4)cc3)CO5)C(=O)O)cc2)c1C [Example 302, (3S,8S)-8-{(S)-1-Carboxy-2-[4-(2,3-dimethyl-pyridin-4-yloxy)-phenyl]-ethylcarbamoyl}-3-[4-(3,4-dichloro-benzyloxy)-phenyl]-2,3,8,9-tetrahydro-6H-[1,4]dioxino[2,3-g]isoquinoline-7-carboxylic acid benzyl ester] |
